Results taken from US20070049514A1, “Resonance modulator for diagnosis and therapy” (priority 2003, published 2007).
Several values for one entry are separate records, joined by “and”; a condition that tells them apart may be missing. Equal values may be shown once. Entries after “also recorded” stand apart in the source; their conditions may differ.

Legend:
[1] = test system: Cutaneous Metastases (cancer lesions); test: Phase I/II trials, topical A-007 0.25% gel on cutaneous metastases; assay type: in vivo, human
[2] = test system: T-lymphocytes (CD4+, CD3+, CD8+, CD45+) and CD11c+ dendritic cells in skin; test: Histochemical assays of biopsies of human skin topically treated with A-007; assay type: in vivo
[3] = test system: naive human lymphocytes (obtained from peripheral blood); test: Aggregation of naive lymphocytes around an A-007 crystal in tissue culture; assay type: cell-based; conditions: 0.5 mg crystals in RPMI, one hour
Excerpt: The ability of an agent to induce aggregation of naïve lymphocytes in culture around a test agent is another factor to be considered in determining whether the agent is a resonance modulator suitable for use in the methods disclosed herein. The ability to induce aggregation within one hour is a particularly strong indication that the compound is suitable for further investigation. “Aggregation” refers to a substantial increase in the number of lymphocytes, such as an increase visible by microscopy, as in FIG. 5.

lymphoma = test: A-007 gel on the skin of a patient with lymphoma; assay type: in vivo, human; conditions: 0.25% gel (0.5 g)
[4] = test system: cervical early cancer-in-situ; test: A-007 gel in cervical cancer-in-situ (single patient); assay type: in vivo, human; conditions: 0.25% gel (2 g) daily for 5 days
Excerpt: The responses are associated with increased organization of T-lymphocyte patterns and disappearance of cancer cells.

HPV = test: A-007 0.25% gel intravaginally, HPV response (titers); assay type: in vivo, Humans; set-up: key: NC: no change; conditions: per patient, intravaginal gel
[5] = test system: T-lymphocytes (CD markers); test: A-007 0.25% gel intravaginally, T-cell profile (tissue/blood); assay type: in vivo, Humans; set-up: key: NC: no change; conditions: per patient; intravaginal gel
[6] = test system: anal squamous cell cancer; test: A-007 0.25% gel intra-anally, cancer response and toxicity; assay type: in vivo, human; conditions: per patient
[7] = test system: T-lymphocytes (CD markers); test: A-007 0.25% gel intra-anally, T-cell profile (tissue/blood); assay type: in vivo, human; set-up: key: NC: no change; conditions: intra-anal gel
HeLa cancer cells (HPV+) = test: HeLa cancer cells incubated with A-007 crystals; assay type: cell-based; conditions: incubated with crystals for 24 hours
Excerpt: Then through cell membrane chemical interphase and modulation of the PTP receptors the cells down regulate, darken with pyknotic changes associated with DNA agglutination resulting in death (lower clumped dark staining cells). The attraction that the crystals have for the cells is associated with intramolecular resonance and associated magnetic patterns described in FIGS. 3 and 4.

[8] = test system: benign fibroblasts or healthy epithelial cells; test: A-007 induced cell death in non-HPV cells; assay type: cell-based; conditions: cells not containing or transformed by HPV
lymphocytes in culture [9] = test: Lymphocyte blastogenesis, blasts per high powered field; assay type: cell-based; conditions: number of blasts per high powered field
Protocol: (§1) Once candidates have been selected as potential resonance modulators, they can be easily assayed to determine whether they induce lymphocyte blastogenesis and activate lymphocytes. Such an assay is found in Morgan et al., Anticancer Research 13:1763-1768 (1993), which is incorporated by reference. See also Janossy et al., Clin. Exp. Immunol. 14:581-596 (1973). Briefly, uptake of [^3]thymidine was measured for lymphocytes in culture. Lymphocytes were cultured in RPMI-1640 tissue culture medium supplemented with 10% fetal bovine serum (FBS). Following stimulation with the resonance modulator, tritiated thymidine (2-20 μCi/ml, specific activity 2 Ci/mmol) was added to the cells and incubated with them. The uptake of [^3]thymidine was stopped by the addition of cold 10% trichloroacetic acid after a selected period of time, and the radioactivity of the samples measured in a scintillation counter. The % lymphoblast was determined by counting the number of blasts per high powered field (hpf) while % activation was determined by uptake of the tritiated thymidine. The increase voltage was measured with an oscilloscope as in Example 7.

lymphocytes in culture [10] = test: Lymphocyte activation, tritiated thymidine uptake; assay type: cell-based; conditions: uptake of tritiated thymidine
Protocol: as §1

CD45+ receptor = CD45+ receptor modulation in lymphocytes and dendritic cells; assay type: cell-based, human
Excerpt: CD45+ is expressed on dendritic cells, lymphocytes, monocytes, and leukocytes, as well as some neoplastic cells, as a protein tyrosine phosphatase (TP), which together with other members of the PTPs, are responsible for […] tyrosine residues. Blockade of the CD45+ receptor sites with anti-CD45 antibodies inhibits T-cell activation and prevents mitogen (lectin) activation of naïve T-cells. CD45+ receptor surfaces contain arginine, serine/threonine and cysteine moieties, which can bind to and/or transfer natural ligands to the surface of APCs, as well as hydrolyze tyrosyl phosphates. […] Different resonance states of A-007 are capable of interacting with different immune cells.

[11] = as seen by crystallography (Klein et al. 1993); cited from earlier work
[12] = test system: vaginal cancer / cervical cancer; test: A-007 0.25% gel intravaginally, cancer response and toxicity; conditions: per patient
[13] = Absorption and disposition of A-007 (blood detection, skin absorption, excretion)
[14] = 53 people treated with topical 0.25% gel
[15] = Breast, 0.25% gel topically twice daily

O=[N+]([O-])c1ccc(NN=C(c2ccc(O)cc2)c2ccc(O)cc2)c([N+](=O)[O-])c1 [Compound A-007, 4,4′-dihydroxybenzophenone-2,4-dinitrophenylhydrazone]
complete responses (number) [1, 14]: ten
objective remissions [1, 14]: 37%
Duration ([1]; Angiosarcoma): 0 wks
Response: number NR ([1]; Angiosarcoma): 2 NR
Toxicities ([1]; Angiosarcoma): 0
Duration ([1]; Anogenital): 1.8+ yrs
Response: number CR ([1]; Anogenital): 5
Response: number PR ([1]; Anogenital): 2
Toxicities ([1]; Anogenital): 0
Toxicities (number, skin, mild) ([1]; Breast): 7 skin (mild)
Response: number CR [1, 15]: 5
Response: number PR [1, 15]: 7
Response: number stable [1, 15]: 6 stable
Duration ([1]; H/N (Sq. Cell)): 0 wks
Toxicities ([1]; H/N (Sq. Cell)): 0
Duration ([1]; KS (Kaposi's sarcoma)): 11 wks
Response: number NR ([1]; KS (Kaposi's sarcoma)): 2 PR, 2 NR
Response: number PR ([1]; KS (Kaposi's sarcoma)): 2 PR, 2 NR
Toxicities ([1]; KS (Kaposi's sarcoma)): 0
Duration ([1]; Melanoma): 3-15 wks
Response: number NR ([1]; Melanoma): 3
Toxicities (number, skin, mild) ([1]; Melanoma): 2 Skin (mild)
Response: number PR ([1]; Melanoma, 0.25% gel topically twice daily): 1
Duration ([1]; NHL): 3.5 yrs
Toxicities ([1]; NHL): 0
Response: number PR ([1]; NHL (non-Hodgkins' lymphoma)): 1 PR
local or systemic toxicity ([1]; topical A-007): substantial absence of A-007 induced local or systemic toxicity
T-lymphocyte infiltrates (CD4+, CD3+, CD8+, CD45+) in treated skin ([2]; biopsies during topical treatment): increased infiltrates
CD11c+ dendritic cell infiltrates in treated skin ([2]; treated areas): Increased skin infiltrates
aggregation of lymphocytes around crystal [3]: lymphocytes and dendritic cells aggregate around the crystal or pellet
peripheral lymphocyte profile (total lymphocyte count) (lymphoma): improvement
duration of cure [4]: over one year
response of cervical carcinoma-in-situ (biopsy) [4]: disappearance of the cancer cells; also recorded: loss of malignant changes
HPV (Response), changes in HP titers (HPV): +(50%)
HPV (Response), changes in HP titers (HPV; CR as in Table 1): +(NC)
T-Cell Profile (Tissue/Blood) CD8/4+ [5]: NC
Response (Cancer) ([6]; gel intra-anally daily for five days): 0% (4×) and 100%
Toxicity ([6]; intra-anal gel): None
T-Cell Profile (Tissue/Blood) All others ([7]; patient A-3): NC
T-Cell Profile (Tissue/Blood) CD4/8 ([7]; patient A-5): NC
T-Cell Profile (Tissue/Blood) CD45+ ([7]; per patient): (NC)
effect on HeLa cancer cells (HeLa cancer cells (HPV+)): undergo necrobiosis and death; also recorded: undergo pyknosis (DNA agglutination and necrosis) and die
A-007 induced cell death [8]: not observed
% Lymphoblast (lymphocytes in culture [9]): 75%
% Activation (lymphocytes in culture [10]): 100%
inhibition of CD45+ (CD45+ receptor): does not inhibit or block CD45+
CD45+ and CD11c+ receptors in human peripheral dendritic cells (CD45+ receptor; A-007-activated DCs): up-regulating both CD45+ and CD11c+ receptors
hydrogen bond donors [11]: greater than 5
Response (Cancer) ([12]; 2 g gel intravaginally daily for five days): 75% and >75%
Toxicity ([12]; intravaginal gel): None
excretion ([13]; administered to a human subject): excreted substantially unchanged
absorption from/through the skin ([13]; applied to skin, animal and human studies): not absorbed from the skin; also recorded: substantially not absorbed through the skin
absorption into the blood ([13]; in vivo): not absorbed into the blood
detection of A-007 in blood ([13]; subjects treated with topical A-007): not been detected in the blood
